The target in experiment [1] is Beta-1 adrenergic receptor (Rattus norvegicus, UniProt P18090). The experiment is described as follows: Displacement of [3H]-CGP12177 from beta1-adrenergic receptor in rat heart membranes. Type of experiment: cell membranes, Membrane. (Loss of bound radioactivity is the signal in a displacement assay; it reports binding, not function.)
The target in experiment [2] is T1, 5-hydroxytryptamine receptor 1A (Homo sapiens, UniProt P08908).
T1 sequence (P08908 whole entry): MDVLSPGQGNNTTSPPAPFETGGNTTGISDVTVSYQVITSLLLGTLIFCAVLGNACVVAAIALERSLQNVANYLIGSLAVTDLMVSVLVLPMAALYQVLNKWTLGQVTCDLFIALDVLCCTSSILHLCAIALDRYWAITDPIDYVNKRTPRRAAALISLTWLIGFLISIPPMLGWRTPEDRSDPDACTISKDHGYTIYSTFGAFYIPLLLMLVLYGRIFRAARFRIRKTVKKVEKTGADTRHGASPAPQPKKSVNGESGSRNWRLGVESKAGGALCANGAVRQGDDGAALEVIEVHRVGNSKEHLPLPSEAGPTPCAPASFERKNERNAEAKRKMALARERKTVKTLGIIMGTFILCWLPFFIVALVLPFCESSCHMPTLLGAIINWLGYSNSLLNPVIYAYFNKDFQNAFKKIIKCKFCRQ
Kind of experiment: Displacement of [3H]-8-OH-DPAT from 5HT1A receptor after 1.5 hrs by liquid scintillation counting.

The target of experiment [3] is Beta-2 adrenergic receptor (Homo sapiens, UniProt P07550). Kind of experiment: Displacement of [125I]-Iodopindolol from beta2-adrenergic receptor after 1.5 hrs by liquid scintillation counting.
The target in experiment [4] is Beta-1 adrenergic receptor (Homo sapiens, UniProt P08588). Kind of experiment: Displacement of [125I]-Iodopindolol from beta1-adrenergic receptor after 1.5 hrs by liquid scintillation counting.

One may read the Ki as the equilibrium dissociation constant of an inhibitor or competing ligand from its target.

Chain of Beta-1 adrenergic receptor (Homo sapiens, UniProt P08588) (P08588 whole entry): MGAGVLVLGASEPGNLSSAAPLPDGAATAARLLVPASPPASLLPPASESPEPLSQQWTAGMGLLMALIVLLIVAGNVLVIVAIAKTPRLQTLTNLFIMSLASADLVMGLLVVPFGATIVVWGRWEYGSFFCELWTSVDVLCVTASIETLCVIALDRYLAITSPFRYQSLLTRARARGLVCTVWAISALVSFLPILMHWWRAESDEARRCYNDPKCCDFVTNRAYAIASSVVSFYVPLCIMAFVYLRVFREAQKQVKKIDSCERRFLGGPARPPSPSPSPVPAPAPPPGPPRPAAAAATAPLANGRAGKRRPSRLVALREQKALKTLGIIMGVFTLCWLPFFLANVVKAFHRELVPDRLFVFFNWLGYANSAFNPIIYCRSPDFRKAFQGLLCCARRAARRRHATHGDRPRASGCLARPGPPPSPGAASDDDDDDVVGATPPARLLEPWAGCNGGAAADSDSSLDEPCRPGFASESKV
Chain of Beta-2 adrenergic receptor (P07550 whole entry): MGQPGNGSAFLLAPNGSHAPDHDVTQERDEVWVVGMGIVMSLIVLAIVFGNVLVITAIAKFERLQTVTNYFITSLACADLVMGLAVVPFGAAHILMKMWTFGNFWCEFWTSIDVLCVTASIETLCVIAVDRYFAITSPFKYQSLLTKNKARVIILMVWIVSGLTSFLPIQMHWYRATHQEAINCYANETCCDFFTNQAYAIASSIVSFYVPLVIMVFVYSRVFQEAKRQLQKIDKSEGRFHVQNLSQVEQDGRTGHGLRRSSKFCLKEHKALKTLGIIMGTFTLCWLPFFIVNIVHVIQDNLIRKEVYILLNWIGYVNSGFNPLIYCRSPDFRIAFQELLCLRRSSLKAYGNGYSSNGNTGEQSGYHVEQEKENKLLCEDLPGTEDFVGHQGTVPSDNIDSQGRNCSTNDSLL
Chain of Beta-1 adrenergic receptor (Rattus norvegicus, UniProt P18090) (P18090 whole entry): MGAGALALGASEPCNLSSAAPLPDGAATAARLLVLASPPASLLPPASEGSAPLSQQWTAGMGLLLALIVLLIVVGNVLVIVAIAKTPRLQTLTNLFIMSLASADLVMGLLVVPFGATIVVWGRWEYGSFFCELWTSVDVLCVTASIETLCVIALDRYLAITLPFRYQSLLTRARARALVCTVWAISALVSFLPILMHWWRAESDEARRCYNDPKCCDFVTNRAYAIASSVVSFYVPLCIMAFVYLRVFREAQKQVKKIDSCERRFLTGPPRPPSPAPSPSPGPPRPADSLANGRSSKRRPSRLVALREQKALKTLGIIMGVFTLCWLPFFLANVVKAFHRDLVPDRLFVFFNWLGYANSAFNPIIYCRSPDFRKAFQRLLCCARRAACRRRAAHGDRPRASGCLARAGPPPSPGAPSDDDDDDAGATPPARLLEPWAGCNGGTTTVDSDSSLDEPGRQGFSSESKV

As for `COc1ccc2nc(-c3ccc(OCC(O)CNC(C)(C)C)cc3)n([11CH3])c(=O)c2c1` (racemic), affinity in experiment [1] was put at a Ki of 77 nM.

As to `COc1ccc2nc(-c3ccc(OCC(O)CNC(C)CF)cc3)n(C)c(=O)c2c1` (mixture of isomers), the figures for the Ki in experiment [2], in experiment [3] and in experiment [4] were above 10 µM, above 10 µM and 2300 nM, respectively.

`COc1ccc2nc(-c3ccc(OCC(O)CNC(C)C)cc3)n(C)c(=O)c2c1` (racemic): the Ki came out at 5.5 µM in experiment [2], 7.7 µM in experiment [3] and 2400 nM in experiment [4].

Turning to `COc1ccc2nc(-c3ccc(OC[C@@H](O)CNC(C)CF)cc3)n(C)c(=O)c2c1` (stereo not given in full), the Ki is above 10 µM in experiment [2], above 10 µM in experiment [3] and 3000 nM in experiment [4].

The values are drawn from ChEMBL document CHEMBL1821724, “Synthesis and in vitro evaluation of derivatives of the β₁-adrenergic receptor antagonist HX-CH 44” (Bioorg Med Chem Lett, 2011).
